Experimental data reported in article PMC11680018, “Study of Cytotoxicity of Spiro-Fused [3-Azabicyclo[3.1.0]hexane]oxindoles and Cyclopropa[a]pyrrolizidine-oxindoles Against Tumor Cell Lines” (Pharmaceuticals, 2024).
Where two headings read alike, the source gives them in different places.

Legend:
[1] = tested on: human melanoma (Sk-mel-2) cell line; assay: Cell motility by scratch test; format: cell-based; details: 10 μg/mL, 36 h, serum-free DMEM; nontreated cells 69.5 ± 17.2
Protocol: To assess the potential ability of spiro-fused [3-azabicyclo[3.1.0]hexane]oxindoles 4, 11, 12, 18, 24 and cyclopropa[a]pyrrolizidine-2,3′-oxindole 2 to inhibit metastasis associated with cell motility, a scratch test was performed on the human melanoma (Sk-mel-2) cell line. Different fields were analyzed by bright field, and each scratch area was photographed at 0 and 36 h for non-toxic and fast cell visualization. Nontreated Sk-mel-2 cells filled 69.5 ± 17.2, 41.5 ± 5.3, 59.7 ± 8.1, 49.3 ± 5.3, 43.0 ± 12.6, 26.1 ± 2.5 and 55.9 ± 8.6% of the scratched strip while under treatment with spiro-fused oxindole derivatives 2, 4, 11, 12, 18 and 24 cells, respectively.
Cells were seeded at a density of 5 × 10^5 cells per dish onto petri dishes and grown to confluency. A 200 μL pipette tip was used to make scratch wounds and detached cells were removed after that by washing with phosphate-buffered saline. Culture media was replaced with serum-free DMEM in order to inhibit cell proliferation. Compounds to be screened were added at a dose of 10 μg/mL to the cultures and incubated for 36 h. Different fields were analyzed by bright field, and each scratch area was photographed at 0 and 36 h. Images were captured using an Axio Observer Z1 confocal microscope (Carl Zeiss MicroImaging GmbH, Jena, Germany). The percent of wound closure in five randomly chosen fields was calculated with ImageJ software, 1.52v.

[2] = tested on: mouse colon carcinoma (CT26) cell line; assay: MTS cell proliferation assay, CT26; format: cell-based; details: for IC50: Mus musculus, MTS; for SI (selectivity index) CT26: ratio of cytotoxicity PBMC / CT26, calculated at 72 h
Protocol: (§1) Cancer cell lines are valuable in vitro model systems that are widely used in cancer research and drug discovery. Their use is mainly linked to their possibility to provide for experimental purposes an unlimited source of biological material. Here, the 24 and 72 h in vitro MTS assay was used to determine the antiproliferative activity of synthesized spiro-fused cyclopropa[a]pyrrolizidine-2,3′-oxindoles and [3-azabicyclo[3.1.0]hexane]-oxindoles against human erythroleukemia (K562), acute T cell leukemia (Jurkat), cervical carcinoma (HeLa), melanoma (Sk-mel-2), breast cancer adenocarcinoma (MCF-7) as well as mouse colon carcinoma (CT26) cell lines. […] The full results of these investigations are presented in the Supporting Information Figures S1–S6. […] An evaluation of the cytotoxicity of the selected compounds towards normal cells (peripheral blood mononuclear cells) was performed additionally to understand their respective relative selectivities. The selectivity index was obtained using the ratio of measured cytotoxicity between the PBMC cells and each of the cancer cell lines, and the results are presented in Table 3.
(§2) The human erythroleukemia (K-562), cervical carcinoma (HeLa) as well as mouse colon carcinoma (CT26) cell lines were obtained from the Bank of Cell Cultures of the Institute of Cytology of the Russian Academy of Sciences; the human melanoma (Sk-mel-2) cell line was obtained from the Bank of Cell Cultures of the Institute of Cytology and Genetics, Siberian Branch of the Russian Academy of Sciences. The acute T cell leukemia (Jurkat) cell line was obtained from the Bank of Cell Cultures of the Institute of Immunology of the Russian Academy of Medical Sciences. The peripheral blood mononuclear cells (PBMC) were isolated from the blood of healthy donors. K-562, Jurkat, MCF-7, PBMC and CT26 cells were grown on RPMI medium (Hyclone, GE Healthcare Life Sciences, Logan, UT, USA) supplemented with 10% (v/v) fetal bovine serum (Hyclone, GE Healthcare Life Sciences, Logan, UT, USA) and gentamicin (Sigma-Aldrich, St. Louis, MO, USA) at 37 °C in a humidified atmosphere with 5% CO2. HeLa and Sk-mel-2 cells were cultured with the same supplements and conditions in DMEM medium (Hyclone, GE Healthcare Life Sciences, Logan, UT, USA).
(§3) To evaluate the in vitro toxicity of the compounds synthesized, cells were seeded into 96-well plates at a density of 5 × 10^3 cells per well. On the next day, the tested compounds were added to the wells at concentrations ranging from 1 to 30 μg/mL, followed by incubation for 1 and 3 days. Cell proliferation was determined by adding 20 μL of MTS reagent (BioVision, Milpitas, CA, USA) stock solution per well. The plates were incubated for 2 h at 37 °C in a humidified, 5% CO2 atmosphere. The plates were then read at 495 nm using a plate spectrophotometer (Multiskan GO, Thermo Fisher Scientific, Waltham, MA, USA). All samples were measured in triplicate.

K562 cells = assay: Cell cycle analysis by flow cytometry; format: cell-based, human; details: 24 h; for K562 cells in SubG1 phase: control 4.5 ± 0.9; for K562 cells in G2/M phase: control 23.1 ± 1.7; for K562 cells in S phase: control 31.9 ± 1.0; for K562 cells in G0/G1 phase: control 40.5 ± 1.3
From the text: Since growth inhibition may be a result of cell cycle arrest at a particular point, the specific antiproliferative activity of several cycloadducts was further evaluated by flow cytometry to study their impact on the progression of the cell cycle in K562 cells. The assay utilizes propidium iodide-based staining of DNA content to distinguish and measure the accumulation of cells in each cell cycle phase (SubG, G0/G1, S and G2/M).
The distribution of K562 cells in the G0/G1-, S- and G2/M-phases of the cell cycle was obtained by quantification of DNA content using flow cytometry in DAPI-stained cells. Briefly, cells were seeded at a density of 5 × 10^4 cells per well in 24-well plates. […] After incubation with drugs, the cells were harvested by pipetting. This was followed by treatment with 0.2 mg/mL saponin (Fluka, Waltham, MA, USA) and 0.05 mg/mL DAPI (Thermo scientific, Rockford, IL, USA). After washing, the samples were analyzed using a standard flow cytometer (BD FACSCanto II, Becton Dickinson, San Jose, CA, USA). A total of 10,000 events were acquired for the samples. Data processing was performed using the BD FACSDiva 9.0 software.

[3] = tested on: peripheral blood mononuclear cells (PBMC); assay: MTS cytotoxicity towards normal cells, PBMC; format: cell-based; details: Homo sapiens
Protocol: as §1, §2, §3

[4] = tested on: human erythroleukemia (K562) cell line; assay: MTS cell proliferation assay, K562; format: cell-based; details: for IC50: Homo sapiens, MTS; for SI (selectivity index) K562: ratio of cytotoxicity PBMC / K562, calculated at 72 h
Protocol: as §1, §2, §3

[5] = tested on: cervical carcinoma (HeLa) cell line; assay: MTS cell proliferation assay, HeLa; format: cell-based, human; details: for IC50: Homo sapiens, HeLa, MTS; for SI (selectivity index) HeLa: ratio of cytotoxicity PBMC / HeLa, calculated at 72 h
Protocol: as §1, §2, §3

[6] = tested on: breast cancer adenocarcinoma (MCF-7) cell line; assay: MTS cell proliferation assay, MCF-7; format: cell-based, human; details: for IC50: Homo sapiens, MTS; for SI (selectivity index) MCF-7: ratio of cytotoxicity PBMC / MCF-7, calculated at 72 h
Protocol: as §1, §2, §3

[7] = tested on: acute T cell leukemia (Jurkat) cell line; assay: MTS cell proliferation assay, Jurkat; format: cell-based, human; details: for IC50: Homo sapiens, Jurkat, MTS; for SI (selectivity index) Jurkat: ratio of cytotoxicity PBMC / Jurkat, calculated at 72 h
Protocol: as §1, §2, §3

[8] = tested on: melanoma (Sk-mel-2) cell line; assay: MTS cell proliferation assay, Sk-mel-2; format: cell-based, human; details: for IC50: Homo sapiens, MTS; for SI (selectivity index) Sk-mel-2: ratio of cytotoxicity PBMC / Sk-mel-2, calculated at 72 h
Protocol: as §1, §2, §3

[9] = tested on: HeLa cells actin cytoskeleton; assay: Actin cytoskeleton staining, confocal microscopy, HeLa; format: cell-based, human; details: 10 μg/mL, 24 h
Protocol: It was found using confocal microscopy that incubation with spiro-fused [3-azabicyclo[3.1.0]hexane]oxindoles 4, 8, 17, 18, 22, 24 and cyclopropa[a]pyrrolizidine-2,3′-oxindole 2 led to significant changes in the HeLa cells’ actin cytoskeleton structure leading to the disappearance of stress fibers (granular actin was distributed diffusely in the cytoplasm in up to 38% of treated cells) and changes in the number of filopodia-like deformations (reduced from 93% in control cells to 64% after treatment). The impact on the Sk-mel-2 cells’ actin cytoskeleton structure was even greater: granular actin was distributed diffusely in the cytoplasm in up to 90% of treated cells while the number of filopodia-like deformations was reduced by up to 23%. Such changes in the cytoskeleton may indicate a change in the motor activity of cells, which may indicate a decrease in the ability of tumor cells to metastasize.
HeLa cells were seeded at a density of 2 × 10^5 cells per dish onto a petri dish with cover slips and incubated for 24 h. After that, cells were treated with chosen compounds (10 μg/mL) for 24 h. The medium was removed and cells were fixed with 4% paraformaldehyde (Sigma-Aldrich, St. Louis, MO, USA), washed three times with PBS, and permeabilized with 0.3% Triton-X100 (Sigma-Aldrich, St. Louis, MO, USA). The cells were rinsed three times with PBS. Actin filaments (microfilaments) were stained with rhodamine–phalloidin (Invitrogen, Carlsbad, CA, USA) at 37 °C for 15 min. The samples were rinsed three times with PBS, followed by embedding in Fluoroshield medium (Sigma-Aldrich, St. Louis, MO, USA). Cells were imaged using an Axio Observer Z1 confocal microscope (Carl Zeiss MicroImaging GmbH, Jena, Germany). In each experiment, at least 30 cells were imaged. Images were analyzed by a pathologist blinded to the treatment mode used for each group using ImageJ software, 1.52v.

[10] = read-out: IC50 CT26 24 h, CT26, 24 h
[11] = CT26, 72 h, read-out: IC50 CT26 72 h
[12] = read-out: IC50 K562 24 h, K562, 24 h
[13] = K562, 72 h, read-out: IC50 K562 72 h
[14] = MCF7, read-out: IC50 MCF-7 24 h, MCF-7, 24 h
[15] = MCF7, MCF-7, 72 h, read-out: IC50 MCF-7 72 h
[16] = read-out: IC50 Jurkat 24 h, 24 h
[17] = 72 h, read-out: IC50 Jurkat 72 h
[18] = read-out: IC50 Sk-mel-2 24 h, Sk-mel-2, 24 h
[19] = Sk-mel-2, 72 h, read-out: IC50 Sk-mel-2 72 h

COC(=O)C1C2(c3ccccc3)C3CCCN3C3(C(=O)Nc4ccc(Cl)cc43)C12c1ccccc1 (centres unmarked) [Compound 12]
Part of the scratched strip filled by Sk-mel-2 cells [1]: 43.0 ± 12.6%

COc1cccc2c1C(=O)c1c(O)c3c(c(O)c1C2=O)C[C@@](O)(C(=O)CO)C[C@@H]3O[C@H]1C[C@H](N)[C@H](O)[C@H](C)O1 [Doxorubicin, reference compound]
IC50 [2, 10]: 19 ± 3 µM
IC50 [2, 11]: 6 ± 1 µM
SI (selectivity index) CT26 [2]: 2
K562 cells in SubG1 phase (K562 cells; 1 μg/mL): 43.0 ± 1.0%
K562 cells in G2/M phase (K562 cells; 1 μg/mL): 2.2 ± 0.3%
K562 cells in S phase (K562 cells; 1 μg/mL): 8.8 ± 1.7%
K562 cells in G0/G1 phase (K562 cells; 1 μg/mL): 45.6 ± 0.8%
K562 cells in SubG1 phase (K562 cells; 5 μg/mL): 93.1 ± 0.7%
K562 cells in G2/M phase (K562 cells; 5 μg/mL): 0.2 ± 0.1%
K562 cells in S phase (K562 cells; 5 μg/mL): 0.8 ± 0.1%
K562 cells in G0/G1 phase (K562 cells; 5 μg/mL): 5.9 ± 0.6%
IC50 ([3]; 72 h, read-out: IC50 PBMC 72 h): 9 ± 1 µM
IC50 ([3]; read-out: IC50 PBMC 24 h, 24 h): 11 ± 1 µM
IC50 [4, 12]: 16 ± 3 µM
IC50 [4, 13]: 1 ± 0.4 µM
SI (selectivity index) K562 [4]: 9
IC50 ([5]; read-out: IC50 HeLa 24 h, 24 h): 4 ± 1 µM
IC50 ([5]; 72 h, read-out: IC50 HeLa 72 h): 1 ± 0.1 µM
SI (selectivity index) HeLa [5]: 9

CC(C)CC1NC2(C(=O)Nc3ccccc32)C2(c3ccccc3)C(c3ccccc3)C12c1ccccc1 (centres unmarked) [Compound 22]
IC50 [2, 10]: > 40 µM
IC50 [2, 11]: 39 ± 3 µM
SI (selectivity index) CT26 [2]: 2
IC50 [6, 14]: > 40 µM
IC50 [6, 15]: > 40 µM
SI (selectivity index) MCF-7 [6]: 1
IC50 [7, 16]: 21 ± 2 µM
IC50 [7, 17]: 4 ± 1 µM
SI (selectivity index) Jurkat [7]: 16
IC50 [8, 18]: > 40 µM
IC50 [8, 19]: 23 ± 2 µM
SI (selectivity index) Sk-mel-2 [8]: 3
HeLa cells with filopodia-like deformations ([9]; control cells 93%, lowest value over the compounds): ≥ 64%
HeLa cells with granular actin distributed diffusely in the cytoplasm (stress fibers disappeared) ([9]; maximum over the compounds): up to 38%
IC50 ([3]; 72 h, read-out: IC50 PBMC 72 h): 64 ± 6 µM
IC50 ([3]; read-out: IC50 PBMC 24 h, 24 h): 132 ± 16 µM
IC50 [4, 12]: > 40 µM
IC50 [4, 13]: 12 ± 1 µM
SI (selectivity index) K562 [4]: 5
IC50 ([5]; read-out: IC50 HeLa 24 h, 24 h): > 40 µM
IC50 ([5]; 72 h, read-out: IC50 HeLa 72 h): 23 ± 2 µM
SI (selectivity index) HeLa [5]: 3

CC[C@H](C)C1NC2(C(=O)Nc3ccccc32)C2(c3ccccc3)C(c3ccccc3)C12c1ccccc1 (some centres unmarked) [Compound 23]
IC50 [2, 10]: > 40 µM
IC50 [2, 11]: > 40 µM
SI (selectivity index) CT26 [2]: 3
IC50 [6, 14]: > 40 µM
IC50 [6, 15]: > 40 µM
SI (selectivity index) MCF-7 [6]: 3
IC50 [7, 16]: 25 ± 2 µM
IC50 [7, 17]: 12 ± 1 µM
SI (selectivity index) Jurkat [7]: 13
IC50 [8, 18]: > 40 µM
IC50 [8, 19]: > 40 µM
SI (selectivity index) Sk-mel-2 [8]: 3
IC50 ([3]; 72 h, read-out: IC50 PBMC 72 h): 165 ± 16 µM
IC50 ([3]; read-out: IC50 PBMC 24 h, 24 h): 177 ± 20 µM
IC50 [4, 12]: > 40 µM
IC50 [4, 13]: 21 ± 2 µM
SI (selectivity index) K562 [4]: 8
IC50 ([5]; read-out: IC50 HeLa 24 h, 24 h): > 40 µM
IC50 ([5]; 72 h, read-out: IC50 HeLa 72 h): > 40 µM
SI (selectivity index) HeLa [5]: 3
